Measured values reported in patent US20260365670A1, “EGFR INHIBITORS AND USES THEREOF” (DIZAL (JIANGSU) PHARMACEUTICAL CO., LTD., priority 2022, published 2026).
Like-named read-outs stand apart in the source and are kept apart here.

Key:
[1] = test system: PC-9; test: Cell proliferation assay, PC-9 cells (CellTiter-Glo, 72 hours); type: cell-based; conditions: PC9 cells, read-out: GI50 PC9
How it was run: (§1)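 Ba/F3 cells carrying EGFR mutants (5000/well) or PC-9 cells (500/well) in RPMI1640 were dosed with compound series after overnight attachment and grown 72 h. Viability read by CellTiter-Glo, with day-0 counts subtracted; GI50 from curve fits of % proliferation versus DMSO control.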

[2] = target: T1, EGFR (d746-750 C797S) (Homo sapiens, UniProt P00533, C797S/DEL746-750); test: Inhibition of EGFR (d746-750 C797S) biochemical enzymatic activity (HTRF); conditions: 1 mM ATP
T1 construct: purchased signalchem
How it was run: (§2)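 Recombinant kinases phosphorylated 1 μM biotinylated TK substrate with 1 mM ATP in buffer with 5 mM MgCl2, 1 mM MnCl2, 0.01% CHAPS, 1 mM DTT, 0.5% DMSO. Reaction ran 1 h at room temperature, stopped with EDTA-containing detection mix. HTRF 665/615 nm ratio gave IC50 via four-parameter logistic fit.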

[3] = test system: A-431; test: Cell proliferation assay, A-431 cells (GI50, Table 6); type: cell-based
[4] = target: T2, EGFR[T790M/C797S/L858R] (Homo sapiens, UniProt P00533, C797S/L858R/T790M); test: Inhibition of EGFR[T790M/C797S/L858R] biochemical enzymatic activity (HTRF); conditions: 1 mM ATP
T2 construct: purchased Carna Bio
T2 sequence (P00533 25-1210 T790M/C797S/L858R): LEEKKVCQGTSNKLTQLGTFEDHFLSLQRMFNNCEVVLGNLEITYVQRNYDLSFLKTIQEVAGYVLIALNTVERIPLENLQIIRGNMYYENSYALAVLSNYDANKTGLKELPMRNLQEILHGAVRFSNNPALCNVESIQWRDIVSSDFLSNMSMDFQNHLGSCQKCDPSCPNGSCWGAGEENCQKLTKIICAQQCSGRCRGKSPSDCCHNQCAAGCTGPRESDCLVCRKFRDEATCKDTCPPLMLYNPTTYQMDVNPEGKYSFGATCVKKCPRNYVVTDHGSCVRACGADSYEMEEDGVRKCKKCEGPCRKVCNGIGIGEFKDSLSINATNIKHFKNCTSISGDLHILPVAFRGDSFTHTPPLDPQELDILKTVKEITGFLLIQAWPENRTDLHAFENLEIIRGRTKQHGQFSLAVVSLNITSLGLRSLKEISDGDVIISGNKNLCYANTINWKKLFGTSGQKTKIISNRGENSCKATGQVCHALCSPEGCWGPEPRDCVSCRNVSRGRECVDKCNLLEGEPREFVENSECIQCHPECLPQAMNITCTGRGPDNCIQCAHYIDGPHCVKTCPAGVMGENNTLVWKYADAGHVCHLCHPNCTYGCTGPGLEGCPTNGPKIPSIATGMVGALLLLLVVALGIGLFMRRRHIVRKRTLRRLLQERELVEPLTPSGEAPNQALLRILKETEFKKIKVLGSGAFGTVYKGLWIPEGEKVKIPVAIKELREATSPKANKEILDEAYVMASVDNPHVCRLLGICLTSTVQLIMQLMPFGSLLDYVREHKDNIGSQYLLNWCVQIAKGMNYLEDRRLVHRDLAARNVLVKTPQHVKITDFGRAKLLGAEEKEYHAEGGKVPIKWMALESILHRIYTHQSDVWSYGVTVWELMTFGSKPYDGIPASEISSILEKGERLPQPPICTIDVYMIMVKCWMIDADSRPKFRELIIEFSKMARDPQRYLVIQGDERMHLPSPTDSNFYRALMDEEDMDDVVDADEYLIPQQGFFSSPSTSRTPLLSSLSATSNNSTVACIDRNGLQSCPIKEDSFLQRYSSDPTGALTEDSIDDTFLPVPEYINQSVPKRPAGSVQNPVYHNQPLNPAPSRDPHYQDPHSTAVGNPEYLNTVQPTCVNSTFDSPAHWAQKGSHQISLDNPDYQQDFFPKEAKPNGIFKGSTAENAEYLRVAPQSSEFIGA
How it was run: as §2

[5] = target: T3, EGFR Exon19Del/T790M (Homo sapiens, UniProt P00533, DEL746-750/T790M); test: Inhibition of EGFR Exon19Del/T790M biochemical enzymatic activity (HTRF); conditions: 1 mM ATP
T3 construct: purchased Carna Bio
How it was run: as §2

[6] = target: T4, EGFR Exon19Del (Homo sapiens, UniProt P00533, DEL746-750); test: Inhibition of EGFR Exon19Del biochemical enzymatic activity (HTRF); conditions: read-out: IC50 @Del19
T4 construct: purchased Carna Bio
How it was run: as §2

[7] = test system: Ba/F3 cells expressing EGFR mutations; test: Cell proliferation assay, Ba/F3 cells expressing EGFR mutations (CellTiter-Glo, 72 hours); type: cell-based
How it was run: as §1

[8] = target: T5, EGFR L858R/T790M (Homo sapiens, UniProt P00533, L858R/T790M); test: Inhibition of EGFR L858R/T790M biochemical enzymatic activity (HTRF); conditions: 1 mM ATP
T5 construct: purchased Carna Bio
T5 sequence (P00533 25-1210 T790M/L858R): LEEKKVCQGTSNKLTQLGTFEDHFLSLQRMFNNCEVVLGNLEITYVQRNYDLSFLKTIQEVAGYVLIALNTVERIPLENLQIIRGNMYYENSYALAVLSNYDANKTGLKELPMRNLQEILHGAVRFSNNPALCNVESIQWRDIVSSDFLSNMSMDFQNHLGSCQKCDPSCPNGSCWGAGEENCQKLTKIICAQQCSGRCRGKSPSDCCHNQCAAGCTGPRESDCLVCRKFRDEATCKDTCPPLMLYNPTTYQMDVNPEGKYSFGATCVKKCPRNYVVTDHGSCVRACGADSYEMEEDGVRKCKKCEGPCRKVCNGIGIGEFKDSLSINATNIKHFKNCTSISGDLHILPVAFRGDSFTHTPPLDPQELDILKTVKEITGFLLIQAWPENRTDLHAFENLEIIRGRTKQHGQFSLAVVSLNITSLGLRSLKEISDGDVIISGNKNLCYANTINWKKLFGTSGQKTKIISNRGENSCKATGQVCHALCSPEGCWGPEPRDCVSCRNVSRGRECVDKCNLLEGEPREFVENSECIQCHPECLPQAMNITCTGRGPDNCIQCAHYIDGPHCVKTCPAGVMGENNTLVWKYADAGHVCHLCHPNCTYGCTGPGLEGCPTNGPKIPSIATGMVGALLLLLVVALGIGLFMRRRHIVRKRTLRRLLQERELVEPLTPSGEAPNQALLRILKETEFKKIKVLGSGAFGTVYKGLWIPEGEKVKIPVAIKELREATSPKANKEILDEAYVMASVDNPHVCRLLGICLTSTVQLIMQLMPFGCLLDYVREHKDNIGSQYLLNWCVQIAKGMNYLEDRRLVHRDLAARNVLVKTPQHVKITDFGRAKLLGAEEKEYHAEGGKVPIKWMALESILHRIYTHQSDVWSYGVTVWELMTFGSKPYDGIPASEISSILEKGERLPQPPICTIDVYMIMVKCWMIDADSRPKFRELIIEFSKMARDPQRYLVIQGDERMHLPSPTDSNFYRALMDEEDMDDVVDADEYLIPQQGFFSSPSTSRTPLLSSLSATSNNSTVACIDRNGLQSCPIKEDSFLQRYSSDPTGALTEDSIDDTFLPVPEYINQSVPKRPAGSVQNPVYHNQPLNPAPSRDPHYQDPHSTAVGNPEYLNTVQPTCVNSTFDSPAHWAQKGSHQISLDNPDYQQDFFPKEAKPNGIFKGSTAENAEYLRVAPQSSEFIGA
How it was run: as §2

[9] = target: T6, EGFR L858R (Homo sapiens, UniProt P00533, L858R); test: Inhibition of EGFR L858R biochemical enzymatic activity (HTRF); conditions: 1 mM ATP
T6 construct: purchased Carna Bio
T6 sequence (P00533 25-1210 L858R): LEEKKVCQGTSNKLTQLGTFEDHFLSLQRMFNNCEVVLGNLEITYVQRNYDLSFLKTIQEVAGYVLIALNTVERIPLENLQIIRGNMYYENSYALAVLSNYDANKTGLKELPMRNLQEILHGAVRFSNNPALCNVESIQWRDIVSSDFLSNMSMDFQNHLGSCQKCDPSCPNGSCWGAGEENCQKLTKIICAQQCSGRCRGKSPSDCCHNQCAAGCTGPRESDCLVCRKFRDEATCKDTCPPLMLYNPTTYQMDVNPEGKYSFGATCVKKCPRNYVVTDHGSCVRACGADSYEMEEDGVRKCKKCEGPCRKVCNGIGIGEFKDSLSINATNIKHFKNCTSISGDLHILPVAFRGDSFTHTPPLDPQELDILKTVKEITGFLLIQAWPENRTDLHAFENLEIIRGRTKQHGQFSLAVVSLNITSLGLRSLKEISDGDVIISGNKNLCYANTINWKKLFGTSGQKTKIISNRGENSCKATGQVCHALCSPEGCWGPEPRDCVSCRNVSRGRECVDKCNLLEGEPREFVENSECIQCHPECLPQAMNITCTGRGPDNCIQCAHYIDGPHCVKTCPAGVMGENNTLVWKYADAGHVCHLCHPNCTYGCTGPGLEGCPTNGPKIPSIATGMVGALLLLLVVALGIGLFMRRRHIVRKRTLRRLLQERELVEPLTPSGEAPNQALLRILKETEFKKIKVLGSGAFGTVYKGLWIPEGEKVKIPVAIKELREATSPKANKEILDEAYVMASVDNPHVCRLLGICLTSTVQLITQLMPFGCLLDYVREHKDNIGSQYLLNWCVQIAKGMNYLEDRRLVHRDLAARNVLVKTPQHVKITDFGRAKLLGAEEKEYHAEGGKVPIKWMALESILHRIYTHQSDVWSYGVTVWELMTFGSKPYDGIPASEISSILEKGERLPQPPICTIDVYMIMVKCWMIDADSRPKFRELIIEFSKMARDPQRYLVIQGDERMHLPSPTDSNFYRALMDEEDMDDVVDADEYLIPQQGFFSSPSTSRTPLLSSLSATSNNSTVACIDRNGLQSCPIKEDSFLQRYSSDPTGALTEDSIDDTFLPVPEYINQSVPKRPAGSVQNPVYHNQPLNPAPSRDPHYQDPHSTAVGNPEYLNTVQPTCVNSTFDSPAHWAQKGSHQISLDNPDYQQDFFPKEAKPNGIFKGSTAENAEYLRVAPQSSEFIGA
How it was run: as §2

[10] = target: T7, EGFR[T790M/C797S/d746-750] (Homo sapiens, UniProt P00533, C797S/DEL746-750/T790M); test: Inhibition of EGFR[T790M/C797S/d746-750] biochemical enzymatic activity (HTRF)
T7 construct: purchased Carna Bio
How it was run: as §2

[11] = target: T8, EGFR wild type (Homo sapiens, UniProt P00533); test: Inhibition of EGFR wild type biochemical enzymatic activity (HTRF); conditions: 1 mM ATP
T8 construct: purchased Carna Bio
How it was run: as §2

[12] = target: T9, EGFR (C797S L858R) (Homo sapiens, UniProt P00533, C797S/L858R); test: Inhibition of EGFR (C797S L858R) biochemical enzymatic activity (HTRF); conditions: 1 mM ATP
T9 construct: purchased signalchem
T9 sequence (P00533 25-1210 C797S/L858R): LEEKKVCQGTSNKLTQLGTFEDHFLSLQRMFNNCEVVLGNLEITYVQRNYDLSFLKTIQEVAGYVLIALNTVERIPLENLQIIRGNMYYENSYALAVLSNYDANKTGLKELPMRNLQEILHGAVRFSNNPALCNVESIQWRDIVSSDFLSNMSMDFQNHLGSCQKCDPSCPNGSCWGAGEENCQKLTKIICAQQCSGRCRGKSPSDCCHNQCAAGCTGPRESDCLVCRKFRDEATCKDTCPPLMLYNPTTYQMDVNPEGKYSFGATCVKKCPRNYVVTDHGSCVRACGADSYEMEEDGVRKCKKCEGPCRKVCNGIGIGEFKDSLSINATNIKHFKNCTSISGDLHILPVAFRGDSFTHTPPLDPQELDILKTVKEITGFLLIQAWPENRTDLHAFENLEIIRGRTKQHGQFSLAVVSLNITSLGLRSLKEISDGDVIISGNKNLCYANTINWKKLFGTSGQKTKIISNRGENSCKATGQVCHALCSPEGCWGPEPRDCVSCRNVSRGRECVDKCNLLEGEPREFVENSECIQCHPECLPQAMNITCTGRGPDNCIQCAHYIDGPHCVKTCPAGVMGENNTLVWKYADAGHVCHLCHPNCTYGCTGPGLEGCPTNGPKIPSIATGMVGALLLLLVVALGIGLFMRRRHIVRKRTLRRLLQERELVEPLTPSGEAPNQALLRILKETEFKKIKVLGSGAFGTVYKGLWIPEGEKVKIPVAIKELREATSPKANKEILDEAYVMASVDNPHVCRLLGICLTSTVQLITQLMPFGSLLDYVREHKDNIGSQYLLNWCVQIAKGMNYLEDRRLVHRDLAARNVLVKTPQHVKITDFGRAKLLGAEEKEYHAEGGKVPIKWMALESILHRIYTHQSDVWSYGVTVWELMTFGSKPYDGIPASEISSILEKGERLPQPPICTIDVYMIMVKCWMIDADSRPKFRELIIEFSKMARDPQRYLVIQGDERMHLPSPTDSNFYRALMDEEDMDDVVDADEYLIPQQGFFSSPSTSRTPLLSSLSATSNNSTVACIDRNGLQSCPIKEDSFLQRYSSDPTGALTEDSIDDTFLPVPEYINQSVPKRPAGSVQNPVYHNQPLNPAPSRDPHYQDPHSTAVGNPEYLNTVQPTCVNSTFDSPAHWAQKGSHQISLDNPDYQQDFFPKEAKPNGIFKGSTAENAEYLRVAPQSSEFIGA
How it was run: as §2

[13] = EGFR (d746-750 C797S), 1 h at room temperature, read-out: IC50 @Del19-C797S
[14] = EGFR[T790M/C797S/L858R], 1 h at room temperature, read-out: IC50 @T790M- C797S - L858R
[15] = EGFR Exon19Del/T790M, 1 h at room temperature, read-out: IC50 @Del19-T790M
[16] = EGFR Exon19Del, 1 mM ATP, 1 h at room temperature
[17] = BaF3 cells, EGFR DEL19 - C797S, read-out: GI50 DEL19 - C797S/BaF3
[18] = BaF3 cells, EGFR DEL19 - T790-C797S, read-out: GI50 DEL19 - T790-C797S/BaF3
[19] = BaF3 cells, EGFR L858R - C797S, read-out: GI50 L858R - C797S/BaF3
[20] = BaF3 cells, EGFR L858R - T790-C797S, read-out: GI50 L858R - T790-C797S/BaF3
[21] = BaF3 cells, EGFR L858R - T790M, read-out: GI50 L858R - T790M/BaF3
[22] = BaF3 cells, EGFR L858R, read-out: GI50 L858R/BaF3
[23] = EGFR DEL19 - T790M, read-out: GI50 DEL19 - T790M
[24] = EGFR L858R/T790M, 1 h at room temperature, read-out: IC50 @L858R-T790M
[25] = 1 h at room temperature, read-out: IC50 @L858R
[26] = EGFR[T790M/C797S/d746-750], 1 mM ATP, 1 h at room temperature, read-out: IC50 @T790M - C797S - Del19
[27] = EGFR wild type, 1 h at room temperature, read-out: IC50 @WT
[28] = EGFR (C797S L858R), 1 h at room temperature, read-out: IC50 @L858-C797S
[29] = EGFR Del19-C797S, 1 h, room temperature, read-out: IC50 (nM) @Del19-C797S
[30] = Homo sapiens, A-431, A-431 cells
[31] = EGFR T790M-C797S-L858R, 1 h, room temperature, read-out: IC50 (nM) @T790M- C797S - L858R
[32] = EGFR Del19-T790M, 1 h, room temperature, read-out: IC50 (nM) @Del19-T790M
[33] = EGFR Del19, 1 mM ATP, 1 h, room temperature
[34] = Mus musculus, BaF3, 72 h, BaF3 cells, EGFR DEL19 - C797S, read-out: GI50 DEL19 - C797S/BaF3
[35] = Mus musculus, BaF3, 72 h, BaF3 cells, EGFR DEL19 - T790-C797S, read-out: GI50 DEL19 - T790-C797S/BaF3
[36] = Mus musculus, BaF3, 72 h, BaF3 cells, EGFR L858R - C797S, read-out: GI50 L858R - C797S/BaF3
[37] = Mus musculus, BaF3, 72 h, BaF3 cells, EGFR L858R - T790-C797S, read-out: GI50 L858R - T790-C797S/BaF3
[38] = Mus musculus, BaF3, 72 h, BaF3 cells, EGFR L858R - T790M, read-out: GI50 L858R - T790M/BaF3
[39] = Mus musculus, BaF3, 72 h, BaF3 cells, EGFR L858R, read-out: GI50 L858R/BaF3
[40] = Mus musculus, BaF3, 72 h, EGFR DEL19 - T790M, read-out: GI50 DEL19 - T790M
[41] = EGFR L858R-T790M, 1 h, room temperature, read-out: IC50 (nM) @L858R-T790M
[42] = 1 h, room temperature, read-out: IC50 (nM) @L858R
[43] = EGFR T790M-C797S-Del19, 1 mM ATP, 1 h, room temperature, read-out: IC50 (nM) @T790M - C797S - Del19
[44] = EGFR WT, 1 h, room temperature, read-out: IC50 (nM) @WT
[45] = EGFR L858-C797S, 1 h, room temperature, read-out: IC50 (nM) @L858-C797S

Row | SMILES | GI50 [1] [nM] | IC50 [2, 13] [nM] | GI50 ([1]; Homo sapiens, PC-9, 72 h) [nM] | IC50 [2, 29] [nM] | GI50 [3, 30] [nM] | IC50 [4, 31] [nM] | IC50 [5, 32] [nM] | IC50 [6, 33] [nM] | GI50 [7, 34] [nM] | GI50 [7, 35] [nM] | GI50 [7, 36] [nM] | GI50 [7, 37] [nM] | GI50 [7, 38] [nM] | GI50 [7, 39] [nM] | GI50 [7, 40] [nM] | IC50 [8, 41] [nM] | IC50 [9, 42] [nM] | IC50 [10, 43] [nM] | IC50 [11, 44] [nM] | IC50 [12, 45] [nM] | other results
1 | Cc1cc2cc(n1)-c1cnn(C)c1OCCN1CC3CCC(C3)(C1)n1c(nc3ccc(N4CCC5(CCN(C)C5)CC4)cc31)NC2=O (single isomer, unassigned) [Example B52A] | 311 | 2050 |  |  |  |  |  |  |  |  |  |  |  |  |  |  |  |  |  |  | GI50 ([3]; A-431 cells): 7020 nM; IC50 [4, 14]: > 5000 nM; IC50 [5, 15]: 100 nM; IC50 [6, 16]: > 5000 nM; GI50 [7, 17]: 102 nM; GI50 [7, 18]: 169 nM; GI50 [7, 19]: 180 nM; GI50 [7, 20]: 41 nM; GI50 [7, 21]: 191 nM; GI50 [7, 22]: 176 nM; GI50 [7, 23]: 363 nM; IC50 [8, 24]: > 5000 nM; IC50 [9, 25]: > 5000 nM; IC50 [10, 26]: 37 nM; IC50 [11, 27]: > 5000 nM; IC50 [12, 28]: > 5000 nM
2 | C[C@@H]1CCCOc2cc(F)c(F)cc2-c2cc(cn(C)c2=O)C(=O)Nc2nc3ccc(N4CCN(C)CC4)cc3n2C1 [Example A111, (12R)-4,5-difluoro-12,27-dimethyl-17-(4-methylpiperazin-1-yl)-8-oxa-14,21,23,27-tetraazapentacyclo[23.3.1.0^{2,7}.0^{14,22}.0^{15,20}]nonacosa-1(29),2(7),3,5,15,17,19,21,25-nonaene-24,28-dione] |  |  | 334 | 18 | 8230 | 63 | 46 | 21 | 30.3 | 326 | 125 | 309 | 658 | 103 | 325 | 86 | 36 | 47 | 607 | 40 | 
3 | CN1CCC2CN(c3ccc4nc5n(c4c3)C34CCC(CC3)CN(CCOc3c(cnn3C)-c3cc(cn(C)c3=O)C(=O)N5)C4)CC21 (stereo not drawn) [Example A127] |  |  | 34 | 9.2 | 4680 | 39 | 10 | 15 | 8.5 | 36 | 38 | 21 | 52 | 7.2 | 26 | 211 | 118 | 6.1 | 4880 | 69 | 
4 | Cn1ncc2c1OCCN1CC3CCC(C3)(C1)n1c(nc3cc(F)c(N4CCOCC4)cc31)NC(=O)c1cc-2c(=O)n(C)c1 (single isomer, unassigned) [Example A118B] |  |  | 16 | 3.2 | 1120 | 11 | 7.4 | 8.7 | 0.68 | 4.1 | 8.2 | 6.7 | 19 | 3.8 | 1.8 | 61 | 110 | 2.9 | 3640 | 37 | 
5 | Cc1cc2cc(n1)-c1cnn(C)c1OCCN1CC3CCC(C3)(C1)n1c(nc3ccc(N4CCN(C5CC5)CC4)cc31)NC2=O (single isomer, unassigned) [Example B55B] | 10 | 1.7 |  |  |  |  |  |  |  |  |  |  |  |  |  |  |  |  |  |  | GI50 ([3]; A-431 cells): 2080 nM; IC50 [4, 14]: 1.5 nM; IC50 [5, 15]: 3.2 nM; IC50 [6, 16]: 4.3 nM; GI50 [7, 17]: 2 nM; GI50 [7, 18]: 2 nM; GI50 [7, 19]: 11 nM; GI50 [7, 20]: 2 nM; GI50 [7, 21]: 2 nM; GI50 [7, 22]: 17 nM; GI50 [7, 23]: 7 nM; IC50 [8, 24]: 2.3 nM; IC50 [9, 25]: 64 nM; IC50 [10, 26]: 1.6 nM; IC50 [11, 27]: 1830 nM; IC50 [12, 28]: 6 nM
